Data reported in patent US9115083B2 (Simpson Biotech Co., Ltd, priority 2011, dated 2015).
Values joined by “and” are separate entries in the source; they are usually repeats but may differ in a detail not shown here. Equal values may be shown once.

The compounds below were run against HCV NS3/4A protease (Hepatitis C virus genotype 1a (isolate H77) (HCV), UniProt P27958) (assay: HCV protease assay (fluorimetric, FRET substrate)). Settings: not given.
Format: biochemical
Excerpt: The HCV protease assay herein was applied to investigate the HCV-protease inhibitory activity of the prepared compounds as described above. The method of the HCV protease assay was described in D. T. Phuong, C. M. Ma, M. Hattori and J. S. Jin: Inhibitory Effects of Antrodins A-E from Antrodia cinnamomea and Their Metabolites on Hepatitis C Virus Protease. Phytotherapy Research, 23, 582-584, 2009. Two micro liters of a compound solution (using DMSO as solvent) was placed in 384 well micro plate, then 8 μl of HCV NS3/4A protease ([…]) was added to the well containing a sample and the plate was agitated. Finally, 10 μL of freshly prepared substrate (Ac-Asp-Glu-Dap(QXL™520)-Glu-Glu-Abu-COO-Ala-Ser-Cys(5-FAMsp)-NH2) (100× dilution of a DMSO stock solution) was added with sequential rotational shaking. The reaction mixture was incubated for 30 min at 37° C. The fluorimetric analyses were performed on an automated TECAN GENios plate reader with excitation wavelength at 485 nm and emission 530 nm. Each test compound was carried out in triplicate. The HCV—PR inhibition (%) was calculated by using the following equation: % inhibition=(Fvehicle control−[…])×100/Fvehicle control (Where F is the fluorescence value of vehicle control or of sample minus the fluorescence of the substrate control).

Sequence of HCV NS3/4A protease (P27958 1027-1657): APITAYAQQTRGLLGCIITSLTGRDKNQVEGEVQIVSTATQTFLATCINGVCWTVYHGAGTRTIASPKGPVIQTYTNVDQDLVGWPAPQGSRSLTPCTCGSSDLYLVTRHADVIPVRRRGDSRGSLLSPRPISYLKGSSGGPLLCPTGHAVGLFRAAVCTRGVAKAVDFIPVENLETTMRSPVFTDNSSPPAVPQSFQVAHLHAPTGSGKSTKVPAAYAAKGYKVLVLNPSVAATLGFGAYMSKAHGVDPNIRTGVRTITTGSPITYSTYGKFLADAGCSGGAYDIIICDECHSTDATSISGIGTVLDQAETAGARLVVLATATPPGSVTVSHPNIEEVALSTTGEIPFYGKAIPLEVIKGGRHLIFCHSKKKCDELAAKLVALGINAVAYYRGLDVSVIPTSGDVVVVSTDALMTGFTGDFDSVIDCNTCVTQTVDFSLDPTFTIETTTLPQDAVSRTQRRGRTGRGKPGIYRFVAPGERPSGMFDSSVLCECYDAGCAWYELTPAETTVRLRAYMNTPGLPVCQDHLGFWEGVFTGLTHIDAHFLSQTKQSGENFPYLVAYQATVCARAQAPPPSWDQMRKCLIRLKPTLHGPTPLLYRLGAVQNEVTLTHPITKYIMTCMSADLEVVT
Sequence of HCV NS3/4A protease (P27958 1658-1711 partner): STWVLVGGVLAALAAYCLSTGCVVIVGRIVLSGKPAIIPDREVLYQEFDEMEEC

Row | Compound | IC50 [µM]
1 | CC(C)=CCOc1ccc(C2=C(CC(C)C)C(=O)N(C(CO)C(=O)O)C2=O)cc1 (stereo not drawn) [Compound A3, 3-Hydroxy-2-(3-isobutyl-4-(4-(3-methylbut-2-enyloxy)phenyl)-2,5-dioxo-2,5-dihydro-1H-pyrrol-1-yl)propanoic acid] | 27
2 | CC(C)=CCOc1ccc(C2=C(CC(C)C)C(=O)N(C(Cc3ccccc3)C(=O)O)C2=O)cc1 (stereo not drawn) [Compound A2, 2-(3-Isobutyl-4-(4-(3-methylbut-2-enyloxy)phenyl)-2,5-dioxo-2,5-dihydro-1H-pyrrol-1-yl)-3-phenylpropanoic acid] | 14
3 | CC(C)=CCOc1ccc(C2=C(CC(C)C)C(=O)N(C(CC(C)C)C(=O)O)C2=O)cc1 (stereo not drawn) [Compound A1, 2-(3-Isobutyl-4-(4-(3-methylbut-2-enyloxy)phenyl)-2,5-dioxo-2,5-dihydro-1H-pyrrol-1-yl)-4-methylpentanoic acid] | 8.6

Same assay, conditions: HCV NS3/4A protease, 30 min at 37° C., triplicate; read-out: IC50 against HCV protease

Row | Compound | IC50 [µM]
4 | CC(C)=CCOc1ccc(C2=C(CC(C)C)C(=O)N(C(c3ccccc3)C(O)C(=O)O)C2=O)cc1 (stereo not drawn) [KC, 2-Hydroxy-3-(3-isobutyl-4-(4-(3-methylbut-2-enyloxy)phenyl)-2,5-dioxo-2,5-dihydro-1H-pyrrol-1-yl)-3-phenylpropanoic acid] | 5
5 | CCOC(=O)[C@H](C)NC(=O)C(=O)C(c1ccccc1)N1C(=O)C(CC(C)C)=C(c2ccc(OCC=C(C)C)cc2)C1=O (stereo partly drawn) [KC-2, Ethyl 2-(3-(3-isobutyl-4-(4-(3-methylbut-2-enyloxy)phenyl)-2,5-dioxo-2,5-dihydro-1H-pyrrol-1-yl)-2-oxo-3-phenylpropanamido)propanoate] | > 100
6 | CC(C)CC1C(=O)N(CC(C(=O)C(=O)NC(Cc2ccccc2)C(=O)O)c2ccccc2)C(=O)C1c1ccc(O)cc1 (stereo not drawn) [KC-5] | 9
7 | CC(C)CC1C(=O)N(C(Cc2ccccc2)C(=O)O)C(=O)C1c1ccc(O)cc1 (stereo not drawn) [Compound A11] | 63
8 | CC(C)CC1C(=O)N(C(C(=O)O)C(C)C)C(=O)C1c1ccc(O)cc1 (stereo not drawn) [Compound A15] | 85
9 | CC(C)CC1C(=O)N(C(CO)C(=O)O)C(=O)C1c1ccc(O)cc1 (stereo not drawn) [Compound A12] | 25
10 | CC(C)=CCOc1ccc(C2=C(CC(C)C)C(=O)N(C(C)C(=O)O)C2=O)cc1 (stereo not drawn) [Compound A8, 2-(3-Isobutyl-4-(4-(3-methylbut-2-enyloxy)phenyl)-2,5-dioxo-2,5-dihydro-1H-pyrrol-1-yl)propanoic acid] | 27
11 | COC(=O)C(NC(=O)C(CC(C)C)N1C(=O)C(CC(C)C)=C(c2ccc(OCC=C(C)C)cc2)C1=O)C(C)C (stereo not drawn) [Compound A1-1, Methyl 2-(2-(3-isobutyl-4-(4-(3-methylbut-2-enyloxy)phenyl)-2,5-dioxo-2,5-dihydro-1H-pyrrol-1-yl)-4-methylpentanamido)-3-methyl-butanoate] | > 100
12 | CC(C)CC1C(=O)N(CC(O)C(=O)O)C(=O)C1c1ccc(O)cc1 (stereo not drawn) [KA-t] | 185
13 | CC(C)=CCOc1ccc(C2=C(CC(C)C)C(=O)N(C(Cc3ccc(O)cc3)C(=O)O)C2=O)cc1 (stereo not drawn) [Compound A4, 3-(4-Hydroxyphenyl)-2-(3-isobutyl-4-(4-(3-methylbut-2-enyloxy)-phenyl)-2,5-dioxo-2,5-dihydro-1H-pyrrol-1-yl)propanoic acid] | 16
14 | CC(C)=CCOc1ccc(C2=C(CC(C)C)C(=O)N(C(C(=O)O)C(C)C)C2=O)cc1 (stereo not drawn) [Compound A7, 2-(3-Isobutyl-4-(4-(3-methylbut-2-enyloxy)phenyl)-2,5-dioxo-2,5-dihydro-1H-pyrrol-1-yl)-3-methylbutanoic acid] | 23.3
15 | CC(C)CC1C(=O)N(C(CC(C)C)C(=O)N[C@@H](C)C(=O)O)C(=O)C1c1ccc(O)cc1 (stereo partly drawn) [Compound A1-10] | 16
16 | CCOC(=O)[C@H](Cc1ccccc1)NC(=O)C(=O)C(c1ccccc1)N1C(=O)C(CC(C)C)=C(c2ccc(OCC=C(C)C)cc2)C1=O (stereo partly drawn) [KC-1, Ethyl 2-(3-(3-isobutyl-4-(4-(3-methylbut-2-enyloxy)phenyl)-2,5-dioxo-2,5-dihydro-1H-pyrrol-1-yl)-2-oxo-3-phenylpropanamido)-3-phenylpropanoate] | > 100
17 | CC(C)=CCOc1ccc(C2=C(CC(C)C)C(=O)N(C(C(=O)C(N)=O)c3ccccc3)C2=O)cc1 (stereo not drawn) [KCnh-1] | 1.95
18 | CCOC(=O)[C@H](Cc1ccc(O)cc1)NC(=O)C(Cc1ccccc1)N1C(=O)C(CC(C)C)=C(c2ccc(OCC=C(C)C)cc2)C1=O (stereo partly drawn) [Compound A2-3, Ethyl 3-(4-hydroxyphenyl)-2-(2-(3-isobutyl-4-(4-(3-methylbut-2-enyloxy)phenyl)-2,5-dioxo-2,5-dihydro-1H-pyrrol-1-yl)-3-phenylpropanamido)propanoate] | 100
19 | CCOC(=O)C(Cc1ccc(O)cc1)NC(=O)C(CC(C)C)N1C(=O)C(CC(C)C)=C(c2ccc(OCC=C(C)C)cc2)C1=O (stereo not drawn) [Compound A1-2, Ethyl 3-(4-hydroxyphenyl)-2-(2-(3-isobutyl-4-(4-(3-methylbut-2-enyloxy)phenyl)-2,5-dioxo-2,5-dihydro-1H-1-yl)-4-methylpentanamido)propanoate] | > 100
20 | CC(C)=CCOc1ccc(C2=C(CC(C)C)C(=O)N(CCC(=O)C(=O)NC(Cc3ccccc3)C(=O)OC(C)(C)C)C2=O)cc1 (stereo not drawn) [KB-2-2] | 16.2
21 | CC(C)CC1C(=O)N(C(Cc2ccccc2)C(=O)N[C@@H](Cc2ccccc2)C(=O)O)C(=O)C1c1ccc(O)cc1 (stereo partly drawn) [Compound A2-12] | 192
22 | COC(=O)C(CO)NC(=O)C(CC(C)C)N1C(=O)C(CC(C)C)=C(c2ccc(OCC=C(C)C)cc2)C1=O (stereo not drawn) [Compound A1-3, Methyl 3-hydroxy-2-(2-(3-isobutyl-4-(4-(3-methylbut-2-enyloxy)-phenyl)-2,5-dioxo-2,5-dihydro-1H-pyrrol-1-yl)-4-methylpentanamido)-propanoate] | > 100
23 | CC(C)=CCOc1ccc(C2=C(CC(C)C)C(=O)N(C(CCC(=O)O)C(=O)O)C2=O)cc1 (stereo not drawn) [Compound A9, 2-(3-Isobutyl-4-(4-(3-methylbut-2-enyloxy)phenyl)-2,5-dioxo-2,5-dihydro-1H-pyrrol-1-yl)pentanedioic acid] | 19
24 | CC(C)=CCOc1ccc(C2=C(CC(C)C)C(=O)N(CCC(=O)C(=O)NC(C)C(=O)OC(C)(C)C)C2=O)cc1 (stereo not drawn) [KB-1-2] | 35.2
25 | CC(C)=CCOc1ccc(C2=C(CC(C)C)C(=O)N(C(C(=O)C(=O)NC(Cc3ccccc3)C(=O)OC(C)(C)C)c3ccccc3)C2=O)cc1 (stereo not drawn) [KC-5-2] | 51.6
26 | CC(C)CC1C(=O)N(C(Cc2ccccc2)C(=O)N[C@@H](CC(C)C)C(=O)O)C(=O)C1c1ccc(O)cc1 (stereo partly drawn) [Compound A2-11] | 120
27 | CC(C)=CCOc1ccc(C2=C(CC(C)C)C(=O)N(C(CC(C)C)C(=O)NC3CC3)C2=O)cc1 (stereo not drawn) [Compound A1-6, N-Cyclopropyl-2-(3-isobutyl-4-(4-(3-methylbut-2-enyloxy)phenyl)-2,5-dioxo-2,5-dihydro-1H-pyrrol-1-yl)-4-methylpentanamide] | > 200
28 | CC(C)CC1C(=O)N(CCC(=O)C(N)=O)C(=O)C1c1ccc(O)cc1 (stereo not drawn) [KBnh-2] | 7.4
29 | CC(C)=CCOc1ccc(C2=C(CC(C)C)C(=O)N(C(C(=O)C(=O)NC(C)C(=O)OC(C)(C)C)c3ccccc3)C2=O)cc1 (stereo not drawn) [KC-4-2] | 18.3

These compounds were tested against dipeptidyl peptidase-IV (DPPIV) (Homo sapiens (Human), UniProt P27487) (assay: dipeptidyl peptidase-IV (DPPIV) assay). Settings: IC50 against DPPIV, Table 10, first scaffold.
Format: biochemical
Excerpt: In addition, the dipeptidyl peptidase-IV (DPPIV) assay herein was applied to investigate the DPPIV inhibitory activity of the prepared compounds as described above. The method of the DPPIV assay was described in Lin et al., 1998. Inhibition of dipeptidyl peptidase IV by fluoroolefin-containing N-peptidyl-O-hydroxylamine peptidomimetics. Proc. Natl. Acad. Sci. USA Vol. 95, pp. 14020-14024.

Sequence of dipeptidyl peptidase-IV (DPPIV) (P27487 whole entry, species assumed): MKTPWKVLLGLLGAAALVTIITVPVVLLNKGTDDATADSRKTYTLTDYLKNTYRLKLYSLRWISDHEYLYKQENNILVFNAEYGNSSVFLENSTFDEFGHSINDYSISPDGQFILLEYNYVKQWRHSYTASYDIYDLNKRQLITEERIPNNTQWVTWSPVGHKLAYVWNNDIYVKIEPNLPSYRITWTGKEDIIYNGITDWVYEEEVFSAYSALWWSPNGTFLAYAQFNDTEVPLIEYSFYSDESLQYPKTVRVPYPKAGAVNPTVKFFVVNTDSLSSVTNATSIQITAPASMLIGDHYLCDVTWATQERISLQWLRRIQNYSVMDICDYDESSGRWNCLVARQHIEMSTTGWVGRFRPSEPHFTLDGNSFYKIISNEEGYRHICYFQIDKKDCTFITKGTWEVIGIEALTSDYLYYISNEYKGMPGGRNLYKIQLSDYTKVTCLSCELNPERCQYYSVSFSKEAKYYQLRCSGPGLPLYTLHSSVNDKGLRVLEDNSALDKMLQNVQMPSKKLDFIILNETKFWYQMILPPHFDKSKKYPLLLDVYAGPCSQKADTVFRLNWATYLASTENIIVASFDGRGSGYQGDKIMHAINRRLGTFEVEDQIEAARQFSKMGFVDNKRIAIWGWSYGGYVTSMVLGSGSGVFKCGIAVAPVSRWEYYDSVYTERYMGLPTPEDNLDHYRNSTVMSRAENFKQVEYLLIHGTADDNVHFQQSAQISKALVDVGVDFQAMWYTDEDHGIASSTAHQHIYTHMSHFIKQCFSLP

Row | Compound | IC50
30 | COC(=O)[C@@H]1CCCN1C(=O)C(CC(C)C)N1C(=O)C(CC(C)C)=C(c2ccc(OCC=C(C)C)cc2)C1=O (stereo partly drawn) [Compound A1-5] | > 186 µM and 65 µM

Same assay, conditions: Table 10, first scaffold; read-out: IC50 against DPPIV (converted)

Row | Compound | IC50 [µM]
31 | CC(C)=CCOc1ccc(C2=C(CC(C)C)C(=O)N(C(CO)C(=O)O)C2=O)cc1 (stereo not drawn) [Compound A3, 3-Hydroxy-2-(3-isobutyl-4-(4-(3-methylbut-2-enyloxy)phenyl)-2,5-dioxo-2,5-dihydro-1H-pyrrol-1-yl)propanoic acid] | 99.6
32 | CC(C)=CCOc1ccc(C2=C(CC(C)C)C(=O)N(C(Cc3ccccc3)C(=O)O)C2=O)cc1 (stereo not drawn) [Compound A2, 2-(3-Isobutyl-4-(4-(3-methylbut-2-enyloxy)phenyl)-2,5-dioxo-2,5-dihydro-1H-pyrrol-1-yl)-3-phenylpropanoic acid] | 75.8
33 | CC(C)=CCOc1ccc(C2=C(CC(C)C)C(=O)N(C(CC(C)C)C(=O)O)C2=O)cc1 (stereo not drawn) [Compound A1, 2-(3-Isobutyl-4-(4-(3-methylbut-2-enyloxy)phenyl)-2,5-dioxo-2,5-dihydro-1H-pyrrol-1-yl)-4-methylpentanoic acid] | 105

Same assay, conditions: Table 10, second scaffold; read-out: IC50 against DPPIV (converted)

Row | IC50 [µM] | Compound
34 | 60 | CC(C)CC1C(=O)N(C(Cc2ccccc2)C(=O)N2CCC[C@H]2C(=O)O)C(=O)C1c1ccc(O)cc1 (stereo partly drawn) [Compound A2-14]
35 | 75 | CC(C)CC1C(=O)N(C(CC(C)C)C(=O)O)C(=O)C1c1ccc(O)cc1 (stereo not drawn) [Compound A1-t]
36 | 29 | CC(C)CC1C(=O)N(C(CC(C)C)C(=O)N2CCC[C@H]2C(=O)O)C(=O)C1c1ccc(O)cc1 (stereo partly drawn) [Compound A1-9]
37 | 85 | CC(C)CC1C(=O)N(C(CO)C(=O)N2CCC[C@H]2C(=O)O)C(=O)C1c1ccc(O)cc1 (stereo partly drawn) [Compound A3-15]

Row | Compound | IC50 [µM]
38 | CC(C)CC1C(=O)N(C(CO)C(=O)O)C(=O)C1c1ccc(O)cc1 (stereo not drawn) [Compound A3-t] | 70
39 | CC(C)CC1C(=O)N(C(Cc2ccccc2)C(=O)O)C(=O)C1c1ccc(O)cc1 (stereo not drawn) [Compound A2-t] | 90
